Data: patent US20210052544A1, “METHODS OF TREATING AND/OR […] USING NABILONE” (Solantech Inc., priority 2018, published 2021)

Test system: bedsores
Experiment: Clinical observation of bedsores in dementia patients with agitation treated orally with nabilone
Assay type: in vivo
Experimental: Patients with dementia having agitation were treated orally at a dose of 0.5 mg nabilone twice a day initially and then going up to a total of 2 mg per day to reduce agitation. […] The number of patients where this effect was observed was six. The perceived impact on healing was significant with healing times varying between 3-6 weeks for small sores.

SMILES: CCCCCCC(C)(C)c1cc(O)c2c(c1)OC(C)(C)C1CCC(=O)CC21 (stereo not shown) [nabilone]
- large sores in treated patients (oral 0.5 mg twice a day up to 2 mg per day): No large sores were observed
- healing of existing bedsores (patients who did have bedsores, oral 0.5 mg twice a day up to 2 mg per day): the bedsores appeared to heal faster
- number and/or severity of bedsores (patients with dementia having agitation, oral 0.5 mg twice a day initially, up to total 2 mg per day, effect observed in six patients): perceived reduction in the number and/or severity of bedsores
- healing times for small sores (small sores, oral 0.5 mg twice a day up to 2 mg per day): 3-6 weeks
